Data set [1] relates to human lung mast cells (HLMC). Put plainly: Histamine release assay, anti-IgE-induced histamine release from purified human lung mast cells. Format: cell-based. As for the experimental part:
(§1) Lung fragments were washed with Tyrode's buffer containing (g/l): NaCl, 8.0; KCl, 0.2; NaH2PO4, 0.05; and glucose, 1.0. The buffer was titrated to pH 7.2 by the addition of NaHCO3. Mast cell isolation and elutriation were performed in a buffer designated “TGMD”, prepared from Tyrode's buffer to which the following were added (g/l): gelatin (1.0), magnesium (0.25; 1 mM), and DNase (0.01). The buffer designated “PAGCM” was a Pipes-albumin (0.003%) buffer containing (g/l): glucose (1.0), CaCl2.2H2O, 0.14 (1 mM); and MgCl2.6H2O, 0.2 (1 mM).
(§2) Mast cells were dispersed from human lung by methods previously reported (Schulman et al., J. Immunol. 29:2662-2667 (1982); Schulman et al., J. Immunol. 131:1936-1941 (1983)). Briefly, lung specimens obtained at thoracotomy for bronchogenic carcinoma were finely minced and extensively washed in divalent cation-free Tyrode's buffer. Fragments were briefly incubated in a mixture of pronase (2 mg/ml) and chymopapain (0.5 mg/ml). Freed cells were harvested through Nytex nylon cloth (150 microns pore size). Residual fragments were further exposed to a mixture of collagenase (1 mg/ml) and elastase (10 units/ml). All incubations and washes were performed at 37° C.; recovered cells were immediately washed three times in large volumes of TGMD. Mast cell purities in these human lung cell suspensions ranged from 1-8% as determined by alcian blue staining (Gilbert et al., Blood 46:279-285 (1975)). Lung mast cells were further purified, by counter-current elutriation, using previously reported methods (Schulman et al., J. Immunol. 131:1936-1941 (1983)). Mast cells were purified (80->98%) by flotation of enriched elutriation fractions through a discontinuous Percoll gradient (Ishizaka et al., J. Immunol. 130:2357-2362 (1983)). Further mast cell purification was accomplished by immunomagnetic negative selection against CD2, CD3, CD4, CD8, CD14, CD16, CD21 and HLADR to ensure against contamination by T cells, B calls, NK cells, monocytes, and dendritic cells prior to mast cell stimulation using previously described methods (Jaffe et al., Am. J. Respir. Cell. Mol. Biol. 13:665-675 (1995); Jaffe et al., Am. J. Respir. Cell. Mol. Biol. 15:473-481 (1996)).
The concentrations of anti-IgE produce 30-70% of maximal release. Twenty minutes following activation, cells were rapidly pelleted and supernatants removed for histamine analysis. Histamine release was expressed as the net histamine released divided by the total histamine content×100%. The total cellular histamine content was determined following cell lysis with 2% perchloric acid. Spontaneous histamine release was always <2% of cellular histamine and generally <1%. Histamine measurements were performed using the automated spectrofluorometric method of Technicon (Tarrytown, N.Y.). Variations between replicates were consistently <5%. All assays were run in duplicates.

The subject of data set [2] is rat peritoneal mast cells. The settings on record: cited from earlier work.
For another data set, the target named is human P2Y1 receptor (Homo sapiens, UniProt P47900). The note with it: cited from earlier work.
human P2Y1 receptor, sequence (P47900 whole entry): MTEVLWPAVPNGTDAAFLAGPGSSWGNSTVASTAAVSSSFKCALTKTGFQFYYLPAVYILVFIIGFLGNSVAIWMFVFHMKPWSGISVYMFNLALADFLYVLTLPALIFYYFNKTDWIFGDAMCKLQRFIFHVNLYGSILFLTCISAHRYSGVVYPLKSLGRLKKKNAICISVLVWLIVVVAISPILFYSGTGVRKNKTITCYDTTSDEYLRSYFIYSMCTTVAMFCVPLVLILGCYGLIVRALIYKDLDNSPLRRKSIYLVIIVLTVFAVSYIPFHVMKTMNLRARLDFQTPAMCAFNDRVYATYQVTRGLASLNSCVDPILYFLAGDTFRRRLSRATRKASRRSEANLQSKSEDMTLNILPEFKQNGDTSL
The test system of the next data set is HLMC. As to the kind of experiment: Functional ectoATPase assay of HLMC (HPLC detection of purine compounds). The note with it: 10^−4M ATP, anti-IgE activated HLMC, 15 + 20 min incubation, n=3. Format: in vitro ADME, human. As for the experimental part:
The supernatants were separated from the cells by centrifugation at 14,000-×g for 5 minutes and kept at −20° C. until analyzed by HPLC. The method of Stocci et al., Anal. Biochem. 167:181-90 (1987) was used for the detection of the purine compounds. The HPLC system consisted of Waters 600E controller, Waters Novapak 4 μm 3.9×150 mm C18 column, and a 990 photodiode array detector. The solvent consisted of 0.1 mM KH2PO4, 8 mM tetrabutylammonium hydrogen sulfate (TAHS) pH 6.0 (buffer A), and 0.1 mM KH2PO4, 8 mM TAHS pH 6.0 with 30% (v/v) methanol (buffer B). The flow rate was 1 ml/min. with the following gradient program: 100% A to 2.5 min., linear gradient to 20% B at 5 min, to 40% B at 10 min., to 100% at 13 min., then 100% B to 30 min. 100 μl of supernatant (neat) was injected and the separation monitored at 254 nm over the 30 minute run time. The ATP peak areas were calculated and compared among the conditions. […] The data are the result of three experiments.

Data set [3] deals with human lung mast cells (HLMC). Put plainly: Direct induction of histamine release from HLMC without anti-IgE. It is filed as cell-based. The note with it: for direct induction of histamine release: no anti-IgE. As for the experimental part: as §1
as §2, with “Further mast cell purification was accomplished by immunomagnetic negative selection against CD2, CD3, CD4, CD8, CD14, CD16, CD21 and HLADR to ensure against contamination by T cells, B calls, NK cells, monocytes, and dendritic cells prior to mast cell stimulation using previously described methods (Jaffe et al., Am. J. Respir. Cell. Mol. Biol. 13:665-675 (1995); Jaffe et al., Am. J. Respir. Cell. Mol. Biol. 15:473-481 (1996)).” left out
The concentrations of anti-IgE produce 30-70% of maximal release. […] Histamine release was expressed as the net histamine released divided by the total histamine content×100%. The total cellular histamine content was determined following cell lysis with 2% perchloric acid. […]

[4] abbreviates: Example 3, control 9.9±3.1%, ten experiments.
The mark [5] stands for this setting: Example 4, 10^−4M (equimolar), control 14.9±3.9%, six experiments, p<0.05.
The mark [6] stands for this setting: Example 3, control 9.9±3.1%, n=10.
[7] abbreviates: Example 5, 10^−4M, control 10.3±3.0%, n=6.
The mark [8] stands for this setting: Example 5, 10^−5M, control 10.3±3.0%, n=6.

Regarding `Nc1ncnc2c1ncn2[C@@H]1O[C@H](COP(=O)(O)CP(=O)(O)OP(=O)(O)O)[C@@H](O)[C@H]1O` [α,βmATP, α,βmethylene-ATP], the “effect on anti-IgE-induced histamine release” value in data set [1] (setting [4]) was “enhanced”. In data set [2], the “induction of mediator release” value is “inactive”.
uracil triphosphate [UTP]: in data set [1] (setting [5]), the anti-IgE-induced histamine release is on record as 19.2±5.0%. Also, in data set [2] (10^−4M), the “achieving mediator release in comparison with ATP” value is “almost inactive”.
With `Nc1ncnc2c1ncn2[C@@H]1O[C@H](COP(=O)(O)O)[C@@H](O)[C@H]1OP(=O)(O)O` [A2P5P, adenosine-2′-phosphate-5′-phosphate], on human P2Y1 receptor, the “agonist activity at the human P2Y1 receptor” value (“agonist activity” below) is listed as “Partial agonists”.
For `Nc1ncnc2c1ncn2[C@@H]1O[C@H](COP(=O)(O)O)[C@@H](OP(=O)(O)O)[C@H]1O` [A3P5P, adenosine-3′-phosphate-5′-phosphate], the “agonist activity” value at human P2Y1 receptor is “devoid of agonist activity”.
For the molecule `Nc1ncnc2c1ncn2[C@@H]1O[C@H](COP(=O)(O)OP(=O)(O)CP(=O)(O)O)[C@@H](O)[C@H]1O` [β,γmATP, β,γmethylene-ATP], the “effect on anti-IgE-induced histamine release” value in data set [1] (setting [4]) is recorded as “enhanced”. In data set [2], the “induction of mediator release” value was “inactive”.
On to `Nc1ncnc2c1ncn2[C@@H]1O[C@H](COP(=O)(O)OS(=O)(=O)O)[C@@H](OP(=O)(O)O)[C@H]1O` [A3P5PS, adenosine-3′-phosphate-5′-phosphosulfate], for which, on human P2Y1 receptor, the “agonist activity” value is “devoid of agonist activity”.
For `Nc1ncnc2c1ncn2[C@@H]1O[C@H](COP(=O)(O)OP(=O)(O)OP(=O)(O)O)[C@@H](O)[C@H]1O` [ATP, adenosine 5′-triphosphate], the anti-IgE-induced histamine release is 14.0+2.4% in data set [1] (10^−3M, n=9, control 10.1+3.4%, not statistically significant (p>0.05)); 32.9±4.5% in data set [1] (10^−4M, high responders, control 24.2±4.2%, n=7); 13.5±2.7% in data set [1] (10^−4M, low responders (<3%), control 1.8±0.4%, n=6); 19.2+2.9% in data set [1] (ATP 10^−4M, 20 anti-IgE-responsive preparations, control 10.9+2.7%, p<0.01); 17.7±4.1% in data set [1] (setting [6]); 23.0±4.7% in data set [1] (setting [5]). In addition, the anti-IgE-induced histamine release result is “significantly enhanced” in data set [1] (setting [7]); “significantly enhanced” in data set [1] (setting [8]); 15.7±7.1% in data set [1] (Example 9, ATP 10^4−M, control 11.2±5.3%, four experiments). In addition, the “effect on anti-IgE-induced histamine release” value in data set [1] (10^−4M, 9 of 9 experiments, control 10.1+3.4%, p<0.05) is listed as “enhanced histamine release”; in data set [1] (10^−5M, 9 of 9 experiments, control 10.1+3.4%, p<0.05), “enhanced histamine release”; in data set [1] (10^−6M, six preparations), “no effects”. In addition, the “percent enhancement of anti-IgE-induced histamine release” value in data set [1] (10^−4M, high responders, n=7) turned out to be 35%; in data set [1] (10^−4M, low responders, n=6), 750%. Also, the “enhancement of anti-IgE-induced histamine release (absolute)” value in data set [1] (10^−4M, lowest and highest anti-IgE responsive preparations) is 8-10%. In addition, the “effect in preparations that failed to respond to anti-IgE alone” value in data set [1] (preincubation 10^−6-10^−3M, 3/23 preparations) is given as “without effect”. In the data set with HLMC, the “area under the ATP peak vs control (ATP alone without HLMC)” value is listed as “no noticeable decrease”. Besides, the “concentration of maximum mediator secretion” value in data set [2] (depressed by Ca^2+ and Mg^2+) is 2 µM. In data set [2] (in the presence of millimolar Ca^2+), the “concentration that inhibits mediator release” value is “above 3 μM”. Also, the “direct induction of histamine release” value in data set [3] (ATP 10^−7M-10^−3M, n=23) is given as “did not directly induce histamine release”. Moreover, the “histamine release on ATP challenge” value in data set [3] (Ca^2+-free and Mg^2+-free media, results not shown) is on record as “failed to provoke histamine release”.
Consider adenosine-2′-phosphate-5′-phosphoribose, for which the “agonist activity” value on human P2Y1 receptor is listed as “Partial agonists”.
`Nc1ncnc2c1ncn2[C@@H]1O[C@H](CO)[C@@H](O)[C@H]1O` [adenosine]: the anti-IgE-induced histamine release was determined as 5.3±1.9% in data set [1] (Example 5, 10^−3 M, control 10.3±3.0%, n=6, p<0.05); 11.2±4.7% in data set [1] (setting [7]); 13.4±5.6% in data set [1] (setting [8]). Besides, the “direct induction of histamine release” value in data set [3] (adenosine alone) is reported as “did not directly induce histamine release”.
In turn, `CSc1nc(N)c2ncn([C@@H]3O[C@H](COP(=O)(O)OP(=O)(O)OP(=O)(O)O)[C@@H](O)[C@H]3O)c2n1` [2-mSATP, 2methylthio-ATP] yielded an anti-IgE-induced histamine release in data set [1] (setting [6]) of 14.3±3.9%.
Take `Cc1nc(N=Nc2ccc(S(=O)(=O)O)cc2S(=O)(=O)O)c(COP(=O)(O)O)c(C=O)c1O` [PPADS, pyridzalphosphate-6-azophenyl-2′,4′-disulfonic acid]: the “anti-IgE-induced histamine release with ATP after preincubation with antagonist” value in data set [1] (Example 9, ATP alone 15.7±7.1%, no significant modulation) came out at 16.1±5.9%.
